# Tests used:
# Experiment in all cases: kinome screen (33PanQinase)
# Type in all cases: biochemical
# FRK = biological target: T1, FRK (Homo sapiens, UniProt P42685)
# T1 construct: purchased Reaction Biology Europe GmbH (formerly ProQinase)
# Description: (§1) The Kinome Screening was performed by Reaction Biology Europe GmbH (http://reactionbiology.com; Freiburg i. Br., Germany).
# SNARK = biological target: T2, SNARK (Homo sapiens, UniProt Q9H093)
# T2 construct: purchased Reaction Biology Europe GmbH (formerly ProQinase)
# T2 sequence (Q9H093 1-628): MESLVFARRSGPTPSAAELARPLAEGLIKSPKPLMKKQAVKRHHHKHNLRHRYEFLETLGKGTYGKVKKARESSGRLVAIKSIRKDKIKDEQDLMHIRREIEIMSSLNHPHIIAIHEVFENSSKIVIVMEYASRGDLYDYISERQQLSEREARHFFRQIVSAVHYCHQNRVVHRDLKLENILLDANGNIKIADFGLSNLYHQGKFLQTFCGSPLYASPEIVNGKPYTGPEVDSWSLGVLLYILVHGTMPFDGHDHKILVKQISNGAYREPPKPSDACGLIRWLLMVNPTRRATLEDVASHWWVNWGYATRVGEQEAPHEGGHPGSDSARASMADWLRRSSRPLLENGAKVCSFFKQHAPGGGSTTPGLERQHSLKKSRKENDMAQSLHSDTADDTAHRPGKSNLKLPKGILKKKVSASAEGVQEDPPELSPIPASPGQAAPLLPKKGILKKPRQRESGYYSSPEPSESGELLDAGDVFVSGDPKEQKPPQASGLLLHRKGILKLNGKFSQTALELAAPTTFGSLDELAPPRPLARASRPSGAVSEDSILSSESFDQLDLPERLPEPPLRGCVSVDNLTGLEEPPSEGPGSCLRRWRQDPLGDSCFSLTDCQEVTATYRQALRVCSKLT
# Description: as §1
# RIPK5 = biological target: T3, RIPK5 (Homo sapiens, UniProt Q6XUX3)
# T3 construct: purchased Reaction Biology Europe GmbH (formerly ProQinase)
# T3 sequence (Q6XUX3 1-929): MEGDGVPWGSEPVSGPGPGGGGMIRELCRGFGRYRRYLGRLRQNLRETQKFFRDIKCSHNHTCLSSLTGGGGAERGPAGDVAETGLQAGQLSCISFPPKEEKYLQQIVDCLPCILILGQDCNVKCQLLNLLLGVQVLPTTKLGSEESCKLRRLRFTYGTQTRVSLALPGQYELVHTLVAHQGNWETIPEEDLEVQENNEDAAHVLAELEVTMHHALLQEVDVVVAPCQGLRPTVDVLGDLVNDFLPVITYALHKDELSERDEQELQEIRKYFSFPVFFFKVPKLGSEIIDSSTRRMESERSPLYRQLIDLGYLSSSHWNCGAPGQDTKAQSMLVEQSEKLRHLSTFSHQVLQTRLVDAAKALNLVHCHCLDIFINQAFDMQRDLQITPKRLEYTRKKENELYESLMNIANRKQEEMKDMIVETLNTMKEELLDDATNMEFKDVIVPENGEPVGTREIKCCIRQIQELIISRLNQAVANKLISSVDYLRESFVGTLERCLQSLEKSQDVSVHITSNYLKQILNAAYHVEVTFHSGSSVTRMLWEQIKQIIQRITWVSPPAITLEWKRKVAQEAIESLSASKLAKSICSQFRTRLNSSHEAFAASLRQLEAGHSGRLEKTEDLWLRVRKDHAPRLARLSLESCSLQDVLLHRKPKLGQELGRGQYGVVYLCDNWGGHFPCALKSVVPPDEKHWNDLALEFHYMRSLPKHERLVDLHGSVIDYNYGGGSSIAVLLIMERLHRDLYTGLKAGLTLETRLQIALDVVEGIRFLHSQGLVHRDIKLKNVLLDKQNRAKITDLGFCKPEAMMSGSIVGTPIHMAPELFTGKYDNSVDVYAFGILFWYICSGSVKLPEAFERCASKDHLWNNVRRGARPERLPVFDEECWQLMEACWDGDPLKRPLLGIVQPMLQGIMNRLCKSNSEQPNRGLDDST
# Description: as §1
# RPS6KA6 = biological target: T4, RPS6KA6 (Homo sapiens, UniProt Q9UK32)
# T4 construct: purchased Reaction Biology Europe GmbH (formerly ProQinase)
# T4 sequence (Q9UK32 whole entry): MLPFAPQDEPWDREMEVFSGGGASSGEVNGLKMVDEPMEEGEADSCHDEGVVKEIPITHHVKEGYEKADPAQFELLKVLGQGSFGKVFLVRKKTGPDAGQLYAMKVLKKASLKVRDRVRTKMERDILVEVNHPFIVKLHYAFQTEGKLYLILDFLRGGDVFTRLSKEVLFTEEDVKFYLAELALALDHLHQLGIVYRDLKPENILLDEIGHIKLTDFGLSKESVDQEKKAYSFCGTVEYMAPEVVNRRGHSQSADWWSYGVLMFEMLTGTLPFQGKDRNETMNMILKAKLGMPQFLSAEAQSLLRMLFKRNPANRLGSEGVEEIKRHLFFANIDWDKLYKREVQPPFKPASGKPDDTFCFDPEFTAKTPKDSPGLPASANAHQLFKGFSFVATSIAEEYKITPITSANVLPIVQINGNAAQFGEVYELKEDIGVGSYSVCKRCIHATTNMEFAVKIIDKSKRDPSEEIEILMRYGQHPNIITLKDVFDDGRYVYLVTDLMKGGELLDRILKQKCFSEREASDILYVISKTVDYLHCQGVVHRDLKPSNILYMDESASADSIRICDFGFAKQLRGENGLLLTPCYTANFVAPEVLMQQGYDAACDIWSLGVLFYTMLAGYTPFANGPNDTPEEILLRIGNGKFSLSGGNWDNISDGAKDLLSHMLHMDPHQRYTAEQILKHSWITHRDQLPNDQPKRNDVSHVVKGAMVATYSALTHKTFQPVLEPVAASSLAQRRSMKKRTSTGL
# Description: as §1
# TTK = biological target: T5, TTK (Homo sapiens, UniProt P33981)
# T5 construct: purchased Reaction Biology Europe GmbH (formerly ProQinase)
# T5 sequence (P33981 1-857): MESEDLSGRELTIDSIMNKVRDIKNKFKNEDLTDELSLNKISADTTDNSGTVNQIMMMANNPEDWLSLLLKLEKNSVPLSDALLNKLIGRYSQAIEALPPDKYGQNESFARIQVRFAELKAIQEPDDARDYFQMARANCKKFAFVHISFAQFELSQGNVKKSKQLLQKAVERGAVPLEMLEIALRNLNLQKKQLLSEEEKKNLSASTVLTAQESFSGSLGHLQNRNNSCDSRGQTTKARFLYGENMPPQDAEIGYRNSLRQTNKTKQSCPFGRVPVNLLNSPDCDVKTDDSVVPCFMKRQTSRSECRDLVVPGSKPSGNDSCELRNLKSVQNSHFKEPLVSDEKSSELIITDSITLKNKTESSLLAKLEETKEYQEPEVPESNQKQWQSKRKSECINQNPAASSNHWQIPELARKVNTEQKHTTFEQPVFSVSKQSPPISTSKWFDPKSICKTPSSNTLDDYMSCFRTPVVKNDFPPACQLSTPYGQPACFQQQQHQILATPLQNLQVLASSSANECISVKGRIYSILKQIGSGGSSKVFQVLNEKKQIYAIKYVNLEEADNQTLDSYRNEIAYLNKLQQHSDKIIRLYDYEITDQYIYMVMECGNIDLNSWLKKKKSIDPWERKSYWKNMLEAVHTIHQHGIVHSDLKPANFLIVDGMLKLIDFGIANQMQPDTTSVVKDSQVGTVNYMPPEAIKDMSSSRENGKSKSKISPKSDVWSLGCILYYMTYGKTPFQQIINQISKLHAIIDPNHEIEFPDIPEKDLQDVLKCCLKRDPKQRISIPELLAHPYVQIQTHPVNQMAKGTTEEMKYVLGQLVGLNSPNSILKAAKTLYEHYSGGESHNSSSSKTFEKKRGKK
# Description: as §1
# T1 sequence (P42685 whole entry): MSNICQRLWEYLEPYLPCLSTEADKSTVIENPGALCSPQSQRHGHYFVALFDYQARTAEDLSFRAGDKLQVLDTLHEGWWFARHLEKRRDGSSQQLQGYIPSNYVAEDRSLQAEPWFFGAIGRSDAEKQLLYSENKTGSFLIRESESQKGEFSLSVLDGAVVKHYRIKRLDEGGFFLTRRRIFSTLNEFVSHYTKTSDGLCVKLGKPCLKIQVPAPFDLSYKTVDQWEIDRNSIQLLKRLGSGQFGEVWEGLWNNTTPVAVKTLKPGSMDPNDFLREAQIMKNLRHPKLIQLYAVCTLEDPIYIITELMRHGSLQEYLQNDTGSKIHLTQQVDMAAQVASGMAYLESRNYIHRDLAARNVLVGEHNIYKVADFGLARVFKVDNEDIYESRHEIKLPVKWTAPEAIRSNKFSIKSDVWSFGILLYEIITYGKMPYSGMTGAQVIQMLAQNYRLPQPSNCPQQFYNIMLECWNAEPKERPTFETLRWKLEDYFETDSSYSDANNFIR
SMILES,residual kinase activity (FRK; 0.03 µM),residual kinase activity (FRK; 0.3 µM),residual kinase activity (SNARK; 0.03 µM),residual kinase activity (SNARK; 0.3 µM),residual kinase activity (RIPK5; 0.03 µM),residual kinase activity (RIPK5; 0.3 µM),residual kinase activity (RPS6KA6; 0.03 µM),residual kinase activity (RPS6KA6; 0.3 µM),residual kinase activity (TTK; 0.03 µM),residual kinase activity (TTK; 0.3 µM),residual kinase activity (FRK; 3 µM),residual kinase activity (SNARK; 3 µM),residual kinase activity (RIPK5; 3 µM),residual kinase activity (RPS6KA6; 3 µM),residual kinase activity (TTK; 3 µM)
COc1ccnc2[nH]cc(-c3cc(N)nc(N)c3)c12 [meriolin 16],103 % of control,99 % of control,99 % of control,64 % of control,101 % of control,86 % of control,84 % of control,48 % of control,49 % of control,8 % of control,,,,,
c1ccc(CNc2cc(-c3c[nH]c4ncccc34)ccn2)cc1 [meriolin 36],,54 % of control,,30 % of control,,58 % of control,,13 % of control,,55 % of control,16 % of control,5 % of control,16 % of control,3 % of control,17 % of control

# Source: article PMC11167047 (Cell Death Discovery, 2024)
